Our source for the IC50 values is patent US8592456B2 (4SC Discovery GmbH, priority 2011, dated 2013).

This assay has as its system PBMC (T cell proliferation). The assay is described as follows: T cell proliferation assay, PHA-stimulated human PBMC (BrdU ELISA). The class given is cell-based. The following applies: 48 hours, BrdU. As for the experimental part: Cell proliferation was analysed using the BrdU based cell proliferation ELISA from Roche (Mannheim, Germany) according to the manufacturer's instructions.
T Cell Proliferation Assay
Peripheral blood mononuclear cells (PBMC) from healthy human donors were isolated by centrifugation over Ficoll-Hypaque (Sigma-Aldrich, Germany) according to manufacturer's instructions. Purified PBMC were washed twice with PBS and resuspended in RPMI1640 culture medium supplemented with 10% dialyzed heat inactivated fetal calf serum, 1.5 mM L-glutamine, 100 U penicillin/ml, and […] (all from PAN Biotech, Aidenbach, Germany). For stimulation, PBMC were seeded at 1×10^5 cells/well, activated with 2 μg/ml phytohaemagglutinin (PHA, Sigma) and incubated with the test compound. After 48 hours proliferation was measured using the BrdU based cell proliferation ELISA from Roche (Mannheim, Germany) according to the manual.

The mark [1] stands for this setting: PHA-stimulated human PBMC, column D, activity classes 1-4, read-out: IC50 (Tcell proliferation).
[2] abbreviates: human PBMC, 2 μg/ml PHA, read-out: D: IC50 (Tcell proliferation).

pIC50: −log10 of the molar value. Read-outs that look alike come from different tables or passages of the source.

On to `Cc1nnc(-c2c(-c3c(F)cccc3Cl)noc2-c2cnn(-c3ccncc3)c2C(F)(F)F)o1` [IB-19, 2-(3-(2-chloro-6-fluorophenyl)-5-(1-(pyridin-4-yl)-5-(trifluoromethyl)-1H-pyrazol-4-yl)isoxazol-4-yl)-5-methyl-1,3,4-oxadiazole], for which the pIC50 under setting [1] is 6.00 to 7.00. Same read-out and setting: then `Fc1ccccc1-n1ncc(-c2onc(-c3c(F)cccc3Cl)c2-c2ccoc2)c1C(F)(F)F` [IB-9, 3-(2-chloro-6-fluorophenyl)-5-(1-(2-fluorophenyl)-5-(trifluoromethyl)-1H-pyrazol-4-yl)-4-(furan-3-yl)isoxazole], with 6.00 to 7.00. Consider `CCOC(=O)c1c(-c2c(Cl)cncc2Cl)noc1-c1cnn(-c2ccncc2)c1C(F)(F)F` [Example B-10, ethyl 3-(3,5-dichloropyridin-4-yl)-5-(1-(pyridin-4-yl)-5-(trifluoromethyl)-1H-pyrazol-4-yl)isoxazole-4-carboxylate], for which the pIC50 under setting [2] is 6.00 to 7.00. On the same count and under the same terms, then `O=C(c1c(-c2c(F)cccc2Cl)noc1-c1cnn(-c2cccc(Cl)c2)c1C(F)(F)F)N1CCCO1` [Example 132, (3-(2-chloro-6-fluorophenyl)-5-(1-(3-chlorophenyl)-5-(trifluoromethyl)-1H-pyrazol-4-yl)isoxazol-4-yl)(isoxazolidin-2-yl)methanone], with 7.00 to 8.00; and `CNC(=O)c1c(-c2c(F)cccc2Cl)noc1-c1cnn(-c2cccc(F)c2)c1C(F)(F)F` [Example 62, 3-(2-chloro-6-fluorophenyl)-5-(1-(3-fluorophenyl)-5-(trifluoromethyl)-1H-pyrazol-4-yl)-N-methylisoxazole-4-carboxamide], with 7.00 to 8.00; and `CCOC(=O)c1c(-c2c(F)cccc2Cl)noc1-c1cnn(-c2ccccc2Br)c1C(F)(F)F` [Example B-72, ethyl 5-(1-(2-bromophenyl)-5-(trifluoromethyl)-1H-pyrazol-4-yl)-3-(2-chloro-6-fluorophenyl)isoxazole-4-carboxylate], with 6.00 to 7.00.

Turning to `COC(=O)c1c(-c2c(F)cccc2Cl)noc1-c1cnn(-c2cc(C)nc(C)n2)c1C(F)(F)F` [Example 119, methyl 3-(2-chloro-6-fluorophenyl)-5-(1-(2,6-dimethylpyrimidin-4-yl)-5-(trifluoromethyl)-1H-pyrazol-4-yl)isoxazole-4-carboxylate], the pIC50 under setting [2] is 6.00 to 7.00. Same read-out and setting: for `CCOC(=O)c1c(-c2ccc(Cl)cc2)noc1-c1cnn(-c2cccc(Cl)c2)c1C(F)(F)F` [Example 77, ethyl 3-(4-chlorophenyl)-5-(1-(3-chlorophenyl)-5-(trifluoromethyl)-1H-pyrazol-4-yl)isoxazole-4-carboxylate] the value was 5.00 to 6.00. Still for that read-out and setting: for `Fc1cccc(Cl)c1-c1noc(-c2cnn(-c3cccc(Cl)c3)c2C(F)(F)F)c1Br` [Example 140, 4-bromo-3-(2-chloro-6-fluorophenyl)-5-(1-(3-chlorophenyl)-5-(trifluoromethyl)-1H-pyrazol-4-yl)isoxazole] the value was 7.00 to 8.00; for `COC(=O)c1c(-c2c(F)cccc2Cl)noc1-c1cnn(-c2ccc(S(C)(=O)=O)cc2)c1C(F)(F)F` [Example 85, methyl 3-(2-chloro-6-fluorophenyl)-5-(1-(4-(methylsulfonyl)phenyl)-5-(trifluoromethyl)-1H-pyrazol-4-yl)isoxazole-4-carboxylate], 5.00 to 6.00. On the same count and under the same terms, for `COc1ccc(-c2noc(-c3cnn(-c4cccc(F)c4)c3C(F)(F)F)c2C(=O)O)cc1` [Example 108, 5-(1-(3-fluorophenyl)-5-(trifluoromethyl)-1H-pyrazol-4-yl)-3-(4-methoxyphenyl)isoxazole-4-carboxylic acid] the value was 5.00 to 6.00. For the molecule `COC(=O)c1c(-c2ccccc2)noc1-c1cnn(-c2ccc(OC(F)(F)F)cc2)c1C(F)(F)F` [Example 74, methyl 3-phenyl-5-(1-(4-(trifluoromethoxy)phenyl)-5-(trifluoromethyl)-1H-pyrazol-4-yl)isoxazole-4-carboxylate], the pIC50 under setting [2] was 5.00 to 6.00. On to `Cc1nnc(-c2c(-c3c(F)cccc3Cl)noc2-c2cnn(-c3ccccc3Cl)c2C(F)(F)F)o1` [IB-18, 2-(3-(2-chloro-6-fluorophenyl)-5-(1-(2-chlorophenyl)-5-(trifluoromethyl)-1H-pyrazol-4-yl)isoxazol-4-yl)-5-methyl-1,3,4-oxadiazole], for which the pIC50 under setting [1] is 5.00 to 6.00. In the case of `COCCn1ncc(-c2onc(-c3c(F)cccc3Cl)c2C(=O)OC)c1C(F)(F)F` [Example 102, methyl 3-(2-chloro-6-fluorophenyl)-5-(1-(2-methoxyethyl)-5-(trifluoromethyl)-H-pyrazol-4-yl)isoxazole-4-carboxylate], the pIC50 under setting [2] is 6.00 to 7.00. Still for that read-out and setting: then `CSC(=O)c1c(-c2c(F)cccc2Cl)noc1-c1cnn(-c2cccc(Cl)c2)c1C(F)(F)F` [Example 126, S-methyl 3-(2-chloro-6-fluorophenyl)-5-(1-(3-chlorophenyl)-5-(trifluoromethyl)-1H-pyrazol-4-yl)isoxazole-4-carbothioate], with over 8.00; and `COC(=O)c1c(-c2c(F)cccc2Cl)noc1-c1cnn(-c2cccc(F)c2)c1` [Example B-21, methyl 3-(2-chloro-6-fluorophenyl)-5-(1-(3-fluorophenyl)-1H-pyrazol-4-yl)isoxazole-4-carboxylate], with 6.00 to 7.00. On the same count and under the same terms, for `CNC(=O)c1c(-c2c(F)cccc2Cl)noc1-c1cnn(-c2ccc(F)cc2F)c1C(F)(F)F` [Example 57, 3-(2-chloro-6-fluorophenyl)-5-(1-(2,4-difluorophenyl)-5-(trifluoromethyl)-1H-pyrazol-4-yl)-N-methylisoxazole-4-carboxamide] the value was 5.00 to 6.00; for `CCOC(=O)c1c(-c2onc(-c3c(F)cccc3Cl)c2C(=O)OC)cnn1-c1cccc(F)c1` [Example 8, methyl 3-(2-chloro-6-fluorophenyl)-5-(5-(ethoxycarbonyl)-1-(3-fluorophenyl)-1H-pyrazol-4-yl)isoxazole-4-carboxylate], 6.00 to 7.00.

As for `COC(=O)c1c(-c2ccccc2F)noc1-c1cnn(-c2cccc(F)c2)c1C(F)(F)F` [Example 92, methyl 3-(2-fluorophenyl)-5-(1-(3-fluorophenyl)-5-(trifluoromethyl)-1H-pyrazol-4-yl)isoxazole-4-carboxylate], the pIC50 under setting [2] was 6.00 to 7.00. On the same count and under the same terms, then `CCOC(=O)c1c(-c2c(F)cccc2Cl)noc1-c1cnn(-c2cccc(C#N)c2)c1C(F)(F)F` [Example B-32, ethyl 3-(2-chloro-6-fluorophenyl)-5-(1-(3-cyanophenyl)-5-(trifluoromethyl)-1H-pyrazol-4-yl)isoxazole-4-carboxylate], with 7.00 to 8.00; and `CON(C)C(=O)c1c(-c2c(F)cccc2Cl)noc1-c1cnn(-c2cccc(F)c2)c1C(F)(F)F` [Example 135, 3-(2-chloro-6-fluorophenyl)-5-(1-(3-fluorophenyl)-5-(trifluoromethyl)-1H-pyrazol-4-yl)-N-methoxy-N-methylisoxazole-4-carboxamide], with 6.00 to 7.00. On the same count and under the same terms, then `COC(=O)c1c(-c2ccc(OC)cc2)noc1-c1cnn(-c2cccc(F)c2)c1C(F)(F)F` [Example 107, methyl 5-(1-(3-fluorophenyl)-5-(trifluoromethyl)-1H-pyrazol-4-yl)-3-(4-methoxyphenyl)isoxazole-4-carboxylate], with 5.00 to 6.00.
